Experimental data reported in patent US9637491B2, “Pyrazolo[4,3-D]pyrimidines as kinase inhibitors” (Origenis GmbH, priority 2012, dated 2017).

Target: T1, SYK kinase (Homo sapiens, UniProt P43405)
T1 construct: purchased Invitrogen, Carlsbad
Assay: SYK assay (OMNIA Kinase Assay, Invitrogen)
Assay type: biochemical
Details: SYK Activities; 1 mM ATP, 10 μM Omnia Peptide Substrate Tyr 7, 30° C.
Protocol: In the assay OMNIA® KINASE ASSAY by Invitrogen Corporation (Carlsbad) the effect of invention of a compound on the phosphorylation is determined by measurement of fluorescence intensity of a chelation-enhanced fluorophore called SOX. Upon phosphorylation of the peptide by the kinase of interest, Mg2+ is chelated to form a bridge between the SOX moiety and the phosphate group that is transferred to the specific tyrosine on the peptide. The fluorescence intensity is directly proportional to the amount of peptide phosphorylation.
To the wells of an 384 well small volume plate (Greiner, Frickenhausen) are added (i) the compound under test in 5% DMSO/distilled water (2 μl), (ii) 16 μl of the master mix containing ATP, DTT, Kinase Reaction Buffer, Omina Peptide Substrate Tyr 7 resulting in a final concentration of 1 mM ATP, 0.2 mM DTT and 10 μM Peptide Substrate. The Master Mix and the assay plate was incubated to reaction temperature before the measurement (30° C.). The reaction was started with addition of (iii) 2 μl 4 μg/ml SYK kinase (Invitrogen, Carlsbad). During measurement fluorescence intensitiy readings were collected using a TECAN M1000 at a wavelength of λex 360/λem 485 nm every 30 s for 30 minutes. The reaction velocity was plotted versus the inhibitor concentration to determine the IC50 using XLFit 5.0 (IDBS, Guildford) to fit to a sigmoidal dose response curve.

| SMILES | IC50 |
| --- | --- |
| N#Cc1cc(Nc2nc(-c3ccc4cn[nH]c4c3)nc3cn[nH]c23)ccc1N1CCOCC1 [Example 85, 5-((5-(1H-indazol-6-yl)-1H-pyrazolo[4,3-d]pyrimidin-7-yl)amino)-2-morpholinobenzonitrile] | 0.01 to 0.1 µM |
| CN1CCN(c2ccc(Nc3nc(-c4ccco4)nc4cn[nH]c34)cn2)CC1 [Example 114, 5-(furan-2-yl)-N-(6-(4-methylpiperazin-1-yl)pyridin-3-yl)-1H-pyrazolo[4,3-d]pyrimidin-7-amine] | 0.1 to 1 µM |
| CC(C)(C)n1cc(Nc2nc(C3CC3)nc3cn[nH]c23)cn1 [Example 228, N-(1-(tert-butyl)-1H-pyrazol-4-yl)-5-cyclopropyl-1H-pyrazolo[4,3-d]pyrimidin-7-amine] | 0.01 to 0.1 µM |
| Cn1cc(-c2nc(Nc3cnn(C4CCOCC4)c3)c3[nH]ncc3n2)cn1 [Example 122, 5-(1-methyl-1H-pyrazol-4-yl)-N-(1-(tetrahydro-2H-pyran-4-yl)-1H-pyrazol-4-yl)-1H-pyrazolo[4,3-d]pyrimidin-7-amine] | 0.01 to 0.1 µM |
| O=S1(=O)CCc2ccc(Nc3nc(-c4cccs4)nc4cn[nH]c34)cc21 [Example 17, 6-((5-(thiophen-2-yl)-1H-pyrazolo[4,3-d]pyrimidin-7-yl)amino)-2,3-dihydrobenzo[b]thiophene 1,1-dioxide] | 0.1 to 1 µM |
| COC(=O)c1cccc(-c2nc(Nc3cnn(C4CCOCC4)c3)c3[nH]ncc3n2)c1 [Example 216, methyl 3-(7-((1-(tetrahydro-2H-pyran-4-yl)-1H-pyrazol-4-yl)amino)-1H-pyrazolo[4,3-d]pyrimidin-5-yl)benzoate] | 0.01 to 0.1 µM |
| Cc1ccc(-c2nc(Nc3ccc(N4CCOCC4)cc3)c3[nH]ncc3n2)s1 [Example 9, 5-(5-methylthiophen-2-yl)-N-(4-morpholinophenyl)-1H-pyrazolo[4,3-d]pyrimidin-7-amine] | 0.01 to 0.1 µM |
| c1nc(-c2nc(Nc3ccc(N4CCOCC4)cc3)c3[nH]ncc3n2)co1 [Example 48, N-(4-morpholinophenyl)-5-(oxazol-4-yl)-1H-pyrazolo[4,3-d]pyrimidin-7-amine] | 0.1 to 1 µM |
| COc1ccc(Nc2nc(-c3sccc3C)nc3cn[nH]c23)cc1OC [Example 51, N-(3,4-dimethoxyphenyl)-5-(3-methylthiophen-2-yl)-1H-pyrazolo[4,3-d]pyrimidin-7-amine] | 0.01 to 0.1 µM |
| c1cc(N2CCNCC2)ccc1Nc1nc(C2CC2)nc2cn[nH]c12 [Example 55, 5-cyclopropyl-N-(4-(piperazin-1-yl)phenyl)-1H-pyrazolo[4,3-d]pyrimidin-7-amine] | 0.1 to 1 µM |
| COCCCn1cc(Nc2nc(-c3ccoc3)nc3cn[nH]c23)cn1 [Example 221, 5-(furan-3-yl)-N-(1-(3-methoxypropyl)-1H-pyrazol-4-yl)-1H-pyrazolo[4,3-d]pyrimidin-7-amine] | < 0.01 µM |
| CC(C)(C)N1CCN(c2ccc(Nc3nc(-c4ccc5cn[nH]c5c4)nc4cn[nH]c34)cc2)CC1 [Example 45, N-(4-(4-(tert-butyl)piperazin-1-yl)phenyl)-5-(1H-indazol-6-yl)-1H-pyrazolo[4,3-d]pyrimidin-7-amine] | < 0.01 µM |
| Fc1cc(Nc2nc(-c3ccc4cn[nH]c4c3)nc3cn[nH]c23)ccc1N1CCOCC1 [Example 46, N-(3-fluoro-4-morpholinophenyl)-5-(1H-indazol-6-yl)-1H-pyrazolo[4,3-d]pyrimidin-7-amine] | 0.01 to 0.1 µM |
| CC(C)c1nc(Nc2cnn(C3CCN(C)CC3)c2)c2[nH]ncc2n1 [Example 184, 5-isopropyl-N-(1-(1-methylpiperidin-4-yl)-1H-pyrazol-4-yl)-1H-pyrazolo[4,3-d]pyrimidin-7-amine] | 0.1 to 1 µM |
| CC1(c2nc(Nc3ccc(N4CCOCC4)cc3)c3[nH]ncc3n2)CC1 [Example 99, 5-(1-methylcyclopropyl)-N-(4-morpholinophenyl)-1H-pyrazolo[4,3-d]pyrimidin-7-amine] | 0.1 to 1 µM |
| CC(=O)N1CCC(n2cc(Nc3nc(-c4ccco4)nc4cn[nH]c34)cn2)CC1 [Example 196, 1-(4-(4-((5-(furan-2-yl)-1H-pyrazolo[4,3-d]pyrimidin-7-yl)amino)-1H-pyrazol-1-yl)piperidin-1-yl)ethan-1-one] | < 0.01 µM |

Further lines, results first:

| IC50 | SMILES |
| --- | --- |
| 0.1 to 1 µM | COCCCn1cc(Nc2nc(-c3cccc(S(N)(=O)=O)c3)nc3cn[nH]c23)cn1 [Example 424, 3-(7-((1-(3-methoxypropyl)-1H-pyrazol-4-yl)amino)-1H-pyrazolo[4,3-d]pyrimidin-5-yl)benzenesulfonamide] |
| 0.1 to 1 µM | COCC(COC)n1cc(Nc2nc(-c3cccc(-c4cccnc4)c3)nc3cn[nH]c23)cn1 [Example 467, N-(1-(1,3-dimethoxypropan-2-yl)-1H-pyrazol-4-yl)-5-(3-(pyridin-3-yl)phenyl)-1H-pyrazolo[4,3-d]pyrimidin-7-amine] |
| 0.1 to 1 µM | CC(C)(C)n1cc(Nc2nc(-c3ncco3)nc3cn[nH]c23)cn1 [Example 249, N-(1-(tert-butyl)-1H-pyrazol-4-yl)-5-(oxazol-2-yl)-1H-pyrazolo[4,3-d]pyrimidin-7-amine] |
| 0.01 to 0.1 µM | CC(C)(C)n1cc(Nc2nc(-c3cocn3)nc3cn[nH]c23)cn1 [Example 243, N-(1-(tert-butyl)-1H-pyrazol-4-yl)-5-(oxazol-4-yl)-1H-pyrazolo[4,3-d]pyrimidin-7-amine] |
| 0.1 to 1 µM | O=C(C1CC1)N1CCCc2ccc(Nc3nc(C4CC4)nc4cn[nH]c34)cc21 [Example 503, cyclopropyl(7-((5-cyclopropyl-1H-pyrazolo[4,3-d]pyrimidin-7-yl)amino)-3,4-dihydroquinolin-1(2H)-yl)methanone] |
| 0.1 to 1 µM | COc1ccc(Nc2nc(-c3c(F)cccc3Cl)nc3cn[nH]c23)cc1OC [Example 513, 5-(2-chloro-6-fluorophenyl)-N-(3,4-dimethoxyphenyl)-1H-pyrazolo[4,3-d]pyrimidin-7-amine] |
| 0.1 to 1 µM | Oc1ccccc1Nc1nc(-c2ccc3cn[nH]c3c2)nc2cn[nH]c12 [Example 506, 2-((5-(1H-indazol-6-yl)-1H-pyrazolo[4,3-d]pyrimidin-7-yl)amino)phenol] |
| < 0.01 µM | CC(C)(C)N1CCC(n2cc(Nc3nc(-c4ccoc4)nc4cn[nH]c34)cn2)CC1 [Example 291, N-(1-(1-(tert-butyl)piperidin-4-yl)-1H-pyrazol-4-yl)-5-(furan-3-yl)-1H-pyrazolo[4,3-d]pyrimidin-7-amine] |
| 0.1 to 1 µM | CC(C)(O)Cn1cc(Nc2nc(-c3ccco3)nc3cn[nH]c23)cn1 [Example 369, 1-(4-((5-(furan-2-yl)-1H-pyrazolo[4,3-d]pyrimidin-7-yl)amino)-1H-pyrazol-1-yl)-2-methylpropan-2-ol] |
| 0.01 to 0.1 µM | N#Cc1cc(Nc2nc(-c3c(F)cccc3F)nc3cn[nH]c23)ccc1N1CCOCC1 [Example 502, 5-((5-(2,6-difluorophenyl)-1H-pyrazolo[4,3-d]pyrimidin-7-yl)amino)-2-morpholinobenzonitrile] |
| 0.1 to 1 µM | OCCn1cc(Nc2nc(-c3nc4ccccc4o3)nc3cn[nH]c23)cn1 [Example 444, 2-(4-((5-(benzo[d]oxazol-2-yl)-1H-pyrazolo[4,3-d]pyrimidin-7-yl)amino)-1H-pyrazol-1-yl)ethan-1-ol] |
| 0.1 to 1 µM | CC(C)Cn1cc(Nc2nc(C3CCC3)nc3cn[nH]c23)cn1 [Example 234, 5-cyclobutyl-N-(1-isobutyl-1H-pyrazol-4-yl)-1H-pyrazolo[4,3-d]pyrimidin-7-amine] |
| 0.01 to 0.1 µM | OC1CCN(c2ccc(Nc3nc(-c4c(F)cccc4F)nc4cn[nH]c34)cc2)CC1 [Example 522, 1-(4-((5-(2,6-difluorophenyl)-1H-pyrazolo[4,3-d]pyrimidin-7-yl)amino)phenyl)piperidin-4-ol] |
| 0.1 to 1 µM | COc1ccc(Nc2nc(C3CCCCCC3)nc3cn[nH]c23)cc1OC [Example 388, 5-cycloheptyl-N-(3,4-dimethoxyphenyl)-1H-pyrazolo[4,3-d]pyrimidin-7-amine] |
| 0.01 to 0.1 µM | CC(C)(C)n1cc(Nc2nc(-c3ccc4cn[nH]c4c3)nc3cn[nH]c23)cn1 [Example 415, N-(1-(tert-butyl)-1H-pyrazol-4-yl)-5-(1H-indazol-6-yl)-1H-pyrazolo[4,3-d]pyrimidin-7-amine] |
| 0.1 to 1 µM | OCCn1cc(Nc2nc(-c3ncco3)nc3cn[nH]c23)cn1 [Example 253, 2-(4-((5-(oxazol-2-yl)-1H-pyrazolo[4,3-d]pyrimidin-7-yl)amino)-1H-pyrazol-1-yl)ethan-1-ol] |
| 0.1 to 1 µM | CC(C)(C)c1nc(Nc2cnn(C3CC3)c2)c2[nH]ncc2n1 [Example 273, 5-(tert-butyl)-N-(1-cyclopropyl-1H-pyrazol-4-yl)-1H-pyrazolo[4,3-d]pyrimidin-7-amine] |
| 0.1 to 1 µM | COc1ccc(Nc2nc(-c3cccc(C(=O)Nc4ccc(-c5cnco5)cc4)c3)nc3cn[nH]c23)cc1OC [Example 319, 3-(7-((3,4-dimethoxyphenyl)amino)-1H-pyrazolo[4,3-d]pyrimidin-5-yl)-N-(4-(oxazol-5-yl)phenyl)benzamide] |
| 0.1 to 1 µM | COCC(COC)n1cc(Nc2nc(C3CCC3)nc3cn[nH]c23)cn1 [Example 463, 5-cyclobutyl-N-(1-(1,3-dimethoxypropan-2-yl)-1H-pyrazol-4-yl)-1H-pyrazolo[4,3-d]pyrimidin-7-amine] |
